US20090023200A1, “PARTICLE FOR DETECTING ENZYME ACTIVITY, METHOD FOR DETECTING THE ENZYME ACTIVITY AND ENZYME ACTIVITY DETECTION DEVICE BY THE USE THEREOF” (priority 2005, published 2009)
Square brackets hold non-standard residues; d marks the D form. Ends that are not written are not given here. * marks the point of attachment. FITC = O=C1OC2(c3ccc(O)cc3Oc3cc(O)ccc32)c2ccc(NC(=S)*)cc21; Dnp = O=[N+]([O-])c1ccc(*)c([N+](=O)[O-])c1; βAla = NCCC(=O)O

What was measured:
Format in all cases: biochemical
subtilisin [1] = test: Subtilisin cleavage of particles for detecting enzyme activity, fluorescence change (Example 1); conditions: for Fluorescence value (changed amount): subtilisin 10 units, 1 mg particle, difference 20 minutes after adding sample solution vs before, excitation 485 nm, fluorescence 535 nm
Protocol: To each 1 mg of the particle for detecting the enzyme activity of the samples 1 to 8, 190 μL of 20 mM Tris-HCl buffer (pH 8.0, 100 mM NaCl, 50 mM CaCl2) containing 0.01% Tween 20 was added, to which 10 μL of subtilisin aqueous solution (10 units) as a sample solution was added. Every measurement time, 10 μL of the sample was taken and 190 μL of the buffer was added, the mixture was transferred to a 96-well plate, and fluorescence values were measured (measurement time: 0.1 seconds) using Wallac 1420 ARVO sx plate reader manufactured by PerkinElmer. A changed amount (difference between the fluorescence value 20 minutes after adding the sample solution and the fluorescence value before adding the sample solution) of the fluorescence value 20 minutes after adding the sample solution is shown in the column on the right in Table 1 (excitation wavelength: 485 nm, fluorescence wavelength: 535 nm).

trypsin [2] = test: Trypsin cleavage of particles for detecting enzyme activity, fluorescence change (Example 2); conditions: trypsin 100 units, 1 mg particle, difference 60 minutes after adding sample solution vs before; excitation 485 nm, fluorescence 535 nm
Protocol: To each 1 mg of the particle for detecting the enzyme activity of the samples 9 to 21, 190 μL of 20 mM Tris-HCl buffer (pH 8.0, 100 mM NaCl, 50 mM CaCl2) containing 0.01% Tween 20 was added, to which […] of trypsin aqueous solution (100 units) as the sample solution was added. Every measurement time, 10 μL of the sample was taken and 190 μL of the buffer was added, the mixture was transferred to the 96-well plate, and fluorescence values were measured (measurement time: 0.1 seconds) using Wallac 1420 ARVO sx plate reader manufactured by PerkinElmer. The changed amount (difference between the fluorescence value 60 minutes after adding the sample solution and the fluorescence value before adding the sample solution) of the fluorescence value 60 minutes after adding the sample solution is shown in the column on the right in Table 2 (excitation wavelength: 485 nm, fluorescence wavelength: 535 nm).

elastase = test: Elastase cleavage of particles, fluorescence change (Example 3); conditions: for Fluorescence value Elastase (changed amount): elastase 10 units, 1 mg particle, difference 60 minutes after adding sample solution vs before, excitation 485 nm, fluorescence 535 nm
Protocol: (§1) To each 1 mg of the particle for detecting the enzyme activity of the samples 22 to 25, 190 μL of 20 mM Tris-HCl buffer (pH 8.0, 100 mM NaCl, 50 mM CaCl2) containing 0.01% Tween 20 was added, to which 10 μL of elastase aqueous solution (10 units), 10 μL of trypsin aqueous solution (10 units) and 10 μL of subtilisin aqueous solution (10 units) as the sample solution was added. Every measurement time, 10 μL of the sample was taken and 190 μL of the buffer was added, the mixture was transferred to the 96-well plate, and fluorescence values were measured (measurement time: 0.1 seconds) using Wallac 1420 ARVO sx plate reader manufactured by PerkinElmer. The changed amount (difference between the fluorescence value 60 minutes after adding the sample solution and the fluorescence value before adding the sample solution) of the fluorescence value […] the sample solution is shown in the column on the right in Table 3 (excitation wavelength: 485 nm, fluorescence wavelength: 535 nm).

trypsin [3] = test: Trypsin cleavage of particles, fluorescence change (Example 3); conditions: for Fluorescence value Trypsin (changed amount): trypsin 10 units, 1 mg particle, difference 60 minutes after adding sample solution vs before, excitation 485 nm, fluorescence 535 nm
Protocol: as §1

subtilisin [4] = test: Subtilisin cleavage of particles, fluorescence change (Example 3); conditions: subtilisin 10 units, 1 mg particle, difference 60 minutes after adding sample solution vs before; excitation 485 nm, fluorescence 535 nm
Protocol: as §1

## Sample 1: PEGA resin particle bearing FITC-β-Ala-Pro-Leu-Gly-Lys, Dnp quencher on lysine ({FITC}-[βAla]PLGK(Dnp); also: attached to PEGA resin particle)
Subtilisin [1]
  Fluorescence value (changed amount): 14.8
Subtilisin [1]; subtilisin, 20 minutes
  difference in the changed amount of the fluorescence values, sample 1 (highest activity) vs sample 8 (lowest activity): ≥ 10 times

## Sample 2: PEGA resin particle bearing FITC-β-Ala-Ala-Pro-Ala-Lys, Dnp quencher on lysine ({FITC}-[βAla]APAK(Dnp); also: attached to PEGA resin particle)
Subtilisin [1]
  Fluorescence value (changed amount): 7.9

## Sample 3: PEGA resin particle bearing FITC-β-Ala-Ala-Pro-Val-Lys, Dnp quencher on lysine ({FITC}-[βAla]APVK(Dnp); also: attached to PEGA resin particle)
Subtilisin [1]
  Fluorescence value (changed amount): 1.2

## Sample 10: PEGA resin particle bearing FITC-β-Ala-Asp-Gly-Arg-Lys, Dnp quencher on lysine ({FITC}-[βAla]DGRK(Dnp); also: attached to PEGA resin particle)
Trypsin [2]
  Fluorescence value (changed amount): 57

## Sample 11: PEGA resin particle bearing FITC-β-Ala-Pro-Arg-Gly-Lys, Dnp quencher on lysine ({FITC}-[βAla]PRGK(Dnp); also: attached to PEGA resin particle)
Trypsin [2]
  Fluorescence value (changed amount): 51

## Sample 12: PEGA resin particle bearing FITC-β-Ala-His-Glu-Lys-Lys, Dnp quencher on lysine ({FITC}-[βAla]HEKK(Dnp); also: attached to PEGA resin particle)
Trypsin [2]
  Fluorescence value (changed amount): 45

## Sample 13: PEGA resin particle bearing FITC-β-Ala-Ser-Ala-Arg-Lys, Dnp quencher on lysine ({FITC}-[βAla]SARK(Dnp); also: attached to PEGA resin particle)
Trypsin [2]
  Fluorescence value (changed amount): 24

## Sample 14: PEGA resin particle bearing FITC-β-Ala-Asn-Pro-Arg-Lys, Dnp quencher on lysine ({FITC}-[βAla]NPRK(Dnp); also: attached to PEGA resin particle)
Trypsin [2]
  Fluorescence value (changed amount): 18

## Sample 15: PEGA resin particle bearing FITC-β-Ala-Gly-Lys-Arg-Lys, Dnp quencher on lysine ({FITC}-[βAla]GKRK(Dnp); also: attached to PEGA resin particle)
Trypsin [2]
  Fluorescence value (changed amount): 18

## Sample 16: PEGA resin particle bearing FITC-β-Ala-Gly-Arg-Arg-Lys, Dnp quencher on lysine ({FITC}-[βAla]GRRK(Dnp); also: attached to PEGA resin particle)
Trypsin [2]
  Fluorescence value (changed amount): 14

## Sample 17: PEGA resin particle bearing FITC-β-Ala-Pro-Arg-Leu-Lys, Dnp quencher on lysine ({FITC}-[βAla]PRLK(Dnp); also: attached to PEGA resin particle)
Trypsin [2]
  Fluorescence value (changed amount): 10

## Sample 18: PEGA resin particle bearing FITC-β-Ala-Thr-Arg-Val-Lys, Dnp quencher on lysine ({FITC}-[βAla]TRVK(Dnp); also: attached to PEGA resin particle)
Trypsin [2]
  Fluorescence value (changed amount): 9

## Sample 19: PEGA resin particle bearing FITC-β-Ala-Phe-Phe-Arg-Lys, Dnp quencher on lysine ({FITC}-[βAla]FFRK(Dnp); also: attached to PEGA resin particle)
Trypsin [2]
  Fluorescence value (changed amount): 8

## Sample 20: PEGA resin particle bearing FITC-β-Ala-His-Leu-Lys-Lys, Dnp quencher on lysine ({FITC}-[βAla]HLKK(Dnp); also: attached to PEGA resin particle)
Trypsin [2]
  Fluorescence value (changed amount): 7

## Sample 21: PEGA resin particle bearing FITC-β-Ala-Pro-Phe-Arg-Lys, Dnp quencher on lysine ({FITC}-[βAla]PFRK(Dnp); also: attached to PEGA resin particle)
Trypsin [2]
  Fluorescence value (changed amount): 3

## Sample 22: PEGA resin particle bearing FITC-β-Ala-Leu-Leu-Glu-Lys, Dnp quencher on lysine ({FITC}-[βAla]LLEK(Dnp); also: attached to PEGA resin particle)
elastase
  Fluorescence value Elastase (changed amount): 38
Trypsin [3]; Table 3 values, same particle
  fluorescence change by trypsin activity relative to that by subtilisin activity: about 1/240
Trypsin [3]
  Fluorescence value Trypsin (changed amount): 2
Subtilisin [4]
  Fluorescence value Subtilisin (changed amount): 481

## Sample 23: PEGA resin particle bearing FITC-β-Ala-Ala-Pro-Ala-Lys, Dnp quencher on lysine ({FITC}-[βAla]APAK(Dnp); also: attached to PEGA resin particle)
elastase; Table 3 values, same particle
  fluorescence change by elastase activity relative to that by subtilisin activity: about 2 times
elastase
  Fluorescence value Elastase (changed amount): 582
Trypsin [3]
  Fluorescence value Trypsin (changed amount): 13
Subtilisin [4]
  Fluorescence value Subtilisin (changed amount): 291

## Sample 24: PEGA resin particle bearing FITC-β-Ala-Asn-Leu-Asp-Lys, Dnp quencher on lysine ({FITC}-[βAla]NLDK(Dnp); also: attached to PEGA resin particle)
elastase
  Fluorescence value Elastase (changed amount): 23
Trypsin [3]
  Fluorescence value Trypsin (changed amount): 5
Subtilisin [4]
  Fluorescence value Subtilisin (changed amount): 446

## Sample 25: PEGA resin particle bearing FITC-β-Ala-Ala-Pro-Leu-Lys, Dnp quencher on lysine ({FITC}-[βAla]APLK(Dnp); also: attached to PEGA resin particle)
elastase
  Fluorescence value Elastase (changed amount): 134
Trypsin [3]
  Fluorescence value Trypsin (changed amount): 11
Subtilisin [4]
  Fluorescence value Subtilisin (changed amount): 428
